The text below walks through data of patent publication US6376666B1 (Nauchno-Issledovatelsky Institut Farmakologii Rossiiskoi …, priority 1994, dated 2002).

In data set [1] the test system is calcium chloride arrhythmia. Briefly: calcium chloride arrhythmia in concious rats. The settings on record: concious rats, given 2 min prior calcium chloride 250-300 mg/kg i.v. Type of data set: in vivo. The protocol:
In these experiments the outbred concious rats 180-200 g of weight were injected with 10% solution of calcium chloride in tail vein at dose range of 250-300 mg/kg.

The subject of a further data set is aconitine arrhythmia. Kind of data set: animal or person. The settings on record: for LD50/ED50 (antiarrhythmic index): LD50 i.v. / ED50 aconitine arrhythmia; for Aconitine arrhythmia ED50: concious rats, i.v. 3 min prior aconitine. It is filed as in vivo, rats. The protocol:
Aconitine arrhythmia. The aconitine arrhythmia was induced in concious rats weighing 180-200 g by the injection in tail vein of the aconitine sulfate solution at dose range of […]. […] The tested compounds were administered i.v. 3 min prior aconitine injection. The ED50 value was calculated according to Litchfield's method.

Data set [2] deals with ventricular fibrillations. Kind of data set: ventricular fibrillation, 7-min occlusion and reperfusion of coronary artery in anesthetized rats. It is filed as in vivo. On the procedure: The experiments were conducted in male rats weighing 180-240 g and anesthetized with nembutal (60 mg/kg i.v.) with open chest and artificial respiration. The occlusion of the left coronary artery was performed 1-2 min after experiment beginning with following reperfusion after 7 min. During this period time according to literature data [Krzeminski T., Grzyb J., Kurcok A., Brus R.: Pol.J.Pharmacol., 1992, 44, Suppl., p.169-170] the maximum number of ventricular fibrillations (70-100%) were registered. The ECG in the 2nd standard lead was recorded in “Mingograph-81”. The number of ventricular fibrillations during occlusion and reperfusion periods, the life menacing arrhythmia (fibrillation+paroxysmal ventricular tachycardia) and total number of arrhythmias were calculated. The known antiarrhythmic drug bonnecor was used as the reference agent [Grigorieva E. K., Gorbunova V. V. in: “New antiarrhythmic drug—bonnecor (the pharmacology and clinical usage)”, M., 1993, p.64-67]. The compounds were injected i.v. at the following doses: bonnecor—1,0 mg/kg, compound IX—2,0 mg/kg, compound XX—1,0 mg/kg. The control animals were administered with the equivalent volume of physiological solution (1,0 ml/kg). 4 series of experiments were carried out in 80 rats. The results were assessed according to the method of point scale: the absence of arrhythmia—0 point, extrasystole—1 point, paroxysmal ventricular tachycardia—2 points, ventricular fibrillation—3 points, fibrillation observed during the occlusion of coronary vessel—4 points. For statistical analysis the Fisher's exact probability and Wilconson's methods were used.
[Krzeminski T., Grzyb J., Kurcok A., Brus R.: Pol.J.Pharmacol., 1992, 44, Suppl., p.169-170] have shown that 7 min occlusion with following reperfusion of coronary artery in anesthetized rats produced the ventricular fibrillation (68-100%). Defibrotide and prostacycline decreased the number of fibrillations. We have studied the antifibrillator activity of some derivatives of 2-mercaptbenzimidazole in this model with disturbances of heart rhythm. Bonnecor (1,0 mg/kg) was used as the reference drug. It is well known that this agent produces apronouncedantifibrillatoryactivity [Grigorieva E. K., Gorbunova V. V. in: “New antiarrhythmic drug-bonnecor (the pharmacology and clinical usage)”, M., 1993, p.64-67].

The conditions of data set [3]: after i.v. injection.

Marks after values point to notes of the source that are not given here.

Turning to `CCOC(=O)Nc1ccc2c(c1)N(C(=O)CN(C)C)c1ccccc1CC2` [Bonnecor, bonnecor, reference compound], the “Calcium chloride arrhythmia ED50 (mean effective dose)” value in data set [1] is listed as 1.6 mg/kg. Besides, in the data set on aconitine arrhythmia, the “LD50/ED50 (antiarrhythmic index)” value was 50 and the “Aconitine arrhythmia ED50” value amounted to 0.23 mg/kg. The “antifibrillatory effect, in words” value in data set [2] (anesthetized rats i.v., bonnecor 1,0, IX 2,0, X (printed) 1,0 mg/kg) is “decreased the number of both the ventricular fibrillations and lethality hazardous arrhythmia”. Further, in data set [2] (anesthetized rats, 1 mg/kg i.v., 18 animals, control 15 of 24), the “Number of VF (ventricular fibrillations)” value was 6*. Further, the “Number of LHA (lethality hazardous arrhythmia)” value in data set [2] (anesthetized rats, 1 mg/kg i.v., 18 animals, control 22 of 24) was 12*. Further, the “Total numbers of arrhyt.” value in data set [2] (anesthetized rats, 1 mg/kg i.v., 18 animals, control 24 of 24) was 16. Besides, the Severity of arrhythmias in data set [2] (anesthetized rats, 1 mg/kg i.v., 18 animals, control 66) is recorded as 36* points. For the same compound, in data set [3], the “Acute toxicity LD50” value was determined as 11.5 mg/kg.
Turning to `CCOC(=O)Nc1ccc2c(c1)N(C(=O)CCN1CCOCC1)c1ccccc1S2` [Etmosin], in the data set on aconitine arrhythmia, the “LD50/ED50 (antiarrhythmic index)” value came to 58.6 and the “Aconitine arrhythmia ED50” value was determined as 0.28 mg/kg. Moreover, in data set [3], the “Acute toxicity LD50” value came to 16.4 mg/kg.
